Legend:
Assay type in all cases: in vivo
Cercospora arachidicola = test: Action against Cercospora arachidicola on peanut plants (curative action); settings: Mycosphaerella arachidis, 288 h, 160 ppm spray, peanut cv. Tamnut, evaluated 12 days after treatment, read-out: action (leaf area infected with Cercospora arachidicola as a percentage compared with the infected control)
Experimental: Action Against Cercospora arachidicola on Peanut Plants (Curative Action)
Two peanut plants cv. “Tamnut” in the 4-leaf stage are sprayed with a conidia suspension of Cercospora arachidicola (approx. 200,000 conidia/ml) and subsequently incubated at 25-26° C. and under dew-point conditions. After two days, the plants are sprayed thoroughly from all sides with a spray mixture prepared with a wettable powder of the active substance (with 160 ppm of active ingredient). The treated plants are subsequently incubated in a controlled-environment cabinet under the following conditions: 25-27° C. and 80% atmospheric humidity during the day, 20° C. and dew-point conditions during the night; the photoperiod in each case is 16 hours. 12 days after the treatment, the test is evaluated by determining the leaf area infected with Cercospora arachidicola as a percentage compared with the infected control.

Alternaria brassicae = Alternaria brassicae (protective action) on cabbage seedlings; settings: 50 ppm spray, cabbage cv. Vorbote, evaluated 2-5 days after infection, read-out: action (leaf area infected with Alternaria brassicae as a percentage compared with the infected, untreated control)
Experimental: Alternaria brassicae (Protective Action)
4 cabbage seedlings, cv. “Vorbote”, in the 6-leaf stage, distributed to 2 pots, are sprayed thoroughly with a spray mixture prepared with a wettable powder of the active substance (with 50 ppm of active ingredient) and subsequently cultured further in a controlled-environment cabinet at 19° C. and with 16 hours illumination per day. Two days after the treatment, the plants are infected by spraying with an aqueous conidia suspension (approx. 30,000 conidia/ml). The cabbage plants are then incubated at 24-26° C., under dew-point conditions and with a photoperiod of 16 hours. The test is evaluated 2-5 days after the infection by determining the leaf area infected with Alternaria brassicae as a percentage compared with the infected, untreated control.

Erysiphe graminis = Erysiphe graminis (protective action) on wheat seedlings; settings: Blumeria graminis, 168 h, 160 ppm spray, wheat cv. Lita, evaluated 7 days after infection, read-out: action (leaf area covered in Erysiphe graminis as a percentage compared with the infected control)
Experimental: Erysiphe graminis (Protective Action)
30-40 wheat seedlings cv. “Lita” in the 1-leaf stage (distributed to two pots of ø7 cm) are sprayed thoroughly with a spray mixture prepared with a wettable powder of the active substance (with 160 ppm of active ingredient) and then cultured further in the greenhouse. One day after the treatment, the plants are dusted with conidia of Erysiphe graminis. The test is evaluated 7 days after the infection by determining the size of the leaf area covered in Erysiphe graminis as a percentage compared with the infected control.
Untreated, but infected control plants show a level of infection with Erysiphe of 100%.

Venturia inaequalis = Venturia inaequalis (curative action) on apple seedlings; settings: 50 ppm spray, apple cv. Golden Delicious, evaluated 9-10 days after treatment, read-out: action (leaf area covered in Venturia inaequalis as a percentage compared with the infected control)
Experimental: Venturia inaequalis (Curative Action)
Two apple seedlings cv. “Golden Delicious” are sprayed with a conidia suspension of Venturia inaequalis and subsequently incubated at 18° C. and under dew-point conditions. After 24 hours, the plants are sprayed thoroughly from all sides with a spray mixture prepared with a wettable powder of the active substance (with 50 ppm of active ingredient). The treated apple seedlings are subsequently cultured further in the greenhouse. 9-10 days after the treatment, the test is evaluated by determining the leaf area covered in Venturia inaequalis as a percentage compared with the infected control.

Plasmopara viticola = Plasmopara viticola (protective action) on grapevine seedlings; settings: 144 h, 160 ppm spray, grapevine cv. Riesling x Sylvaner, day 6 after infection, read-out: action (leaf area infected with Plasmopara viticola as a percentage compared with the infected, untreated control)
Experimental: Plasmopara viticola (Protective Action)
2 grapevine seedlings cv. Riesling×Sylvaner, each in the 4-5 leaf stage, are sprayed thoroughly from all sides with a spray mixture prepared with a wettable powder of the active substance (with 160 ppm of active ingredient) and subsequently cultured further in a controlled-environment cabinet at 17° C., 70-80% relative atmospheric humidity and with a photoperiod of 16 hours. After 6 days, the test plants are infected by spraying the undersides of the leaves with zoosporangia of Plasmopara viticola, suspended in distilled water (approx. 300,000 sporangia/ml). The grapevine plants are then incubated as follows: 1 day at 22° C. and under dew-point conditions in the dark and subsequently 4 days in the greenhouse. To induce fructification of Plasmopara viticola, the grapevines are transferred to a controlled-environment cabinet with dew-point conditions at 22° C. on day 5 after the infection.
The tests are carried out in each case on day 6 after the infection by determining the leaf area infected with Plasmopara viticola as a percentage compared with the infected, untreated control.

Compound	pest or weed control at 160 ppm (Cercospora arachidicola)	pest or weed control at 50 ppm (Alternaria brassicae)	pest or weed control at 160 ppm (Erysiphe graminis)	pest or weed control at 50 ppm (Venturia inaequalis)	pest or weed control at 160 ppm (Plasmopara viticola)
CO/N=C(\C(=O)OC)c1ccccc1CON=C(C)c1ccc(Cl)c(Cl)c1 [Compound 13]	> 75%	> 75%	> 75%	> 75%	–
CO/N=C(\C(=O)OC)c1ccccc1CON=C(C)c1cccs1 [Compound 14]	> 75%	> 75%	–	> 75%	–
CCCC(=NOCc1ccccc1/C(=N/OC)C(=O)OC)c1ccccc1 [Compound 18]	–	–	> 75%	–	–
CO/N=C(\C(=O)OC)c1ccccc1CON=C(C)c1ccc(OC)cc1 [Compound 19]	> 75%	–	–	> 75%	–
CO/N=C(\C(=O)OC)c1ccccc1CON=C(C)c1cc(OC)c(OC)c(OC)c1 [Compound 20]	–	> 75%	–	> 75%	–
CO/N=C(\C(=O)OC)c1ccccc1CON=C(C)c1cccc(Br)c1 [Compound 22]	> 75%	> 75%	–	> 75%	> 75%
CO/N=C(\C(=O)OC)c1ccccc1CON=C(C)C(C)=CC=C(C)CCC=C(C)C [Compound 23]	–	> 75%	> 75%	–	–
CO/N=C(\C(=O)OC)c1ccccc1CON=C(C)c1ccc([N+](=O)[O-])cc1 [Compound 25]	> 75%	> 75%	> 75%	–	–
CO/N=C(\C(=O)OC)c1ccccc1CON=C(C)c1cccc([N+](=O)[O-])c1 [Compound 26]	> 75%	> 75%	–	–	–
CO/N=C(\C(=O)OC)c1ccccc1CON=C(c1ccccc1)C(F)(F)F [Compound 27]	–	–	> 75%	–	–
CCC(=NOCc1ccccc1/C(=N/OC)C(=O)OC)c1ccccc1 [Compound 28]	–	> 75%	–	> 75%	> 75%
CO/N=C(\C(=O)OC)c1ccccc1CON=C(C)C(C)Oc1ccccc1 (centres unmarked) [Compound 37]	–	–	> 75%	–	–
CO/N=C(\C(=O)OC)c1ccccc1CON=C(c1cccc(C(F)(F)F)c1)C(F)(F)F [Compound 39]	–	–	> 75%	–	–
CO/N=C(\C(=O)OC)c1ccccc1CON=C(C)c1cccc(F)c1 [Compound 40]	> 75%	–	> 75%	–	–
CO/N=C(\C(=O)OC)c1ccccc1CON=C(c1ccc2c(c1)OCO2)C1CC1 [Compound 41]	> 75%	–	–	–	> 75%
CO/N=C(\C(=O)OC)c1ccccc1CON=C(C)c1ccc(OC)c(CSC)c1 [Compound 49]	> 75%	–	–	> 75%	–
CO/N=C(\C(=O)OC)c1ccccc1CON=C(C)Cc1ccc2c(c1)OCO2 [Compound 54]	–	> 75%	–	> 75%	–
CO/N=C(\C(=O)OC)c1ccccc1CON=C(C)C(=O)c1ccc2c(c1)OCO2 [Compound 64]	–	–	–	> 75%	–
C=CCOc1cccc(C(C)=NOCc2ccccc2/C(=N/OC)C(=O)OC)c1 [Compound 66]	> 75%	–	–	> 75%	–
C#CCOc1cccc(C(C)=NOCc2ccccc2/C(=N/OC)C(=O)OC)c1 [Compound 67]	–	> 75%	–	–	–
CO/N=C(\C(=O)OC)c1ccccc1CON=C(C)c1cccc(OCC2CC2)c1 [Compound 68]	> 75%	–	–	–	–
CO/N=C(\C(=O)OC)c1ccccc1CON=C(C)c1cccc(C#N)c1 [Compound 70]	–	–	> 75%	–	–
CO/N=C(\C(=O)OC)c1ccccc1CON=C(C)c1cccc(SC#N)c1 [Compound 71]	> 75%	–	–	–	–
